Data published in patent US10888511B2, “Methods and articles of manufacture for the treatment of skin” (Advanced Collagen Science LLC, priority 2013, dated 2021).

Experiments:
Human Skin [1] = assay: Acetylation of human skin without dermabrasion, micro-needle roll or penetration enhancers; format: in vivo; settings: 20 mg/mL in 0.3M disodium phosphate pH 8.9, 30 seconds to 1 minute, no dermabrasion
Protocol: In this example, the pre-treatment buffer, 0.1M disodium phosphate solution, pH 8.3, was applied for 30 seconds using surgical gauze. Glutaric anhydride (20 mg/mL) was mixed in 0.3M disodium phosphate solution at pH 8.9 and immediately (less than 5 seconds after dissolution) applied to the defects for 30 seconds to 1 minute using surgical gauze. Treatment sites were then rinsed with 0.1M phosphate buffered saline, pH 7.2. No effect on skin thickness or appearance was noted.

Processed Human Dermis = assay: Acetylation of processed human skin (epithelium removed): mechanical properties; settings: 100 mg/mL in dilute alkaline buffer pH 8.5, 1-minute treatment, vs specimen treated with buffer alone
Protocol: Processed human skin was obtained for treatment. The processed skin was comprised of lyophilized dermis. Two samples were tested, two 2 cm×4 cm specimens. One of specimens was treated with 100 mg/mL of glutaric anhydride. The second specimen was treated with buffer solution alone. The rejuvenation agent was prepared in dilute alkaline buffer solution, pH 8.5, quickly dissolved and applied to the dermis within 15 seconds. Prior to treatment with the active agent, skin specimens were pre-treated with buffer alone. Treatments were completed in 1-minute.

Human Skin [2] = assay: Acetylation of human skin using glutaric anhydride in pH adjusted vegetable oil without dermabrasion; format: in vivo; settings: 30 mg/mL dispersed in vegetable oil adjusted to pH 9.0, 1 minute, one treatment, no dermabrasion
Protocol: (§1) In this example, glutaric anhydride was applied to temporal defects adjacent to periorbital areas. Skin defects were pretreated by application of 0.1M disodium phosphate solution, pH 8.3 for 30 seconds using surgical gauze. Glutaric anhydride powder (30 mg/mL) was dispersed in vegetable oil adjusted to a pH of 9.0 using 10N NaOH and gently applied to the wet defects for 1 minute using surgical gauze. The treatment sites were then rinsed with 0.1M phosphate buffered saline, pH 7.2. Only one treatment was made to temporal skin sites.

Human Skin [3] = assay: Acetylation of human skin using glutaric anhydride in alkaline EDTA solution following pretreatment with alkaline EDTA solution; format: in vivo; settings: powder on gauze flushed with 0.035M disodium EDTA pH 9.0, upper cheek
Source text: In this example, glutaric anhydride was applied to the cheek. An area of the upper cheek, below the eye, was pretreated with pH adjusted 0.035M disodium EDTA (pH 9.0) applied using a gauze pad. Glutaric anhydride powder was finely ground using a mortar and pestle and rubbed into a second gauze pad. The gauze was placed on the treatment area and flushed with pH adjusted 0.035M disodium EDTA (pH 9.0) to deliver the glutaric anhydride to the treatment site as it dissolved in the EDTA solution. […] Two such applications were performed.

Human Skin [4] = assay: Acetylation of human skin using glutaric anhydride in pH adjusted vegetable oil following micro-needle roller treatment; format: in vivo; settings: 40 mg/mL in vegetable oil adjusted to pH 9.1, forearm, 1 minute
Protocol: In this example, glutaric anhydride was applied to the forearm. A skin area approximately 4 mm×4 mm was punctured using a micro-needle roller, followed by pretreated with 0.1M disodium phosphate solution, pH 8.3 for 30 seconds using cotton swab. Glutaric anhydride powder (40 mg/mL) was dispersed in vegetable oil that was adjusted to a pH of 9.1 using granules of sodium hydroxide powder and gently applied to the pre-treated skin area for 1 minute using a cotton swab. The sites were rinsed using an alcohol swab.

Human Skin [5] = assay: Acetylation of human skin following dermabrasion (aqueous buffer); format: in vivo; settings: 20 mg/mL in 0.3M disodium phosphate pH 8.9, after gentle dermabrasion, temporal defects
Protocol: In this example, glutaric anhydride was applied to temporal defects adjacent to periorbital areas. Skin defects were first subject to gentle dermabrasion followed by application of 0.1M disodium phosphate solution, pH 8.3 for 30 seconds using surgical gauze. Glutaric anhydride (20 mg/mL) was mixed in 0.3M disodium phosphate solution at pH 8.9 and immediately (less than 5 seconds after dissolution) applied to the defects for 30 seconds to 1 minute using surgical gauze. Treatment sites were then rinsed with 0.1M phosphate buffered saline, pH 7.2. Pre-treatment and post-treatment photos were taken and the results evaluated.

Human Skin [6] = assay: Acetylation of human skin using glutaric anhydride in alkaline buffer solution following micro-needle roller treatment; format: in vivo; settings: 40 mg/mL in 0.3M disodium phosphate pH 9.1, forearm
Protocol: In this example, glutaric anhydride was applied to the forearm. A skin area approximately 4 mm×4 mm was punctured using a micro-needle roller, followed by pretreated with 0.1M sodium phosphate buffer, pH 8.3 for 30 seconds using cotton swab. Glutaric anhydride powder (40 mg/mL) was dissolved in 0.3M disodium phosphate solution, pH 9.1 and gently applied to the pre-treated skin area for 1 minute using a cotton swab. The sites were final rinsed using an alcohol swab.

[7] = test system: Human Skin (Hand and Temple); assay: Acetylation of human skin (hand and temple) following dermabrasion, in ethanol or anhydrous alcohol; format: in vivo; settings: 50 mg/mL in ethanol or anhydrous alcohol, 1 minute, after dermabrasion, up to 5 treatments
Protocol: (§2) In this example, glutaric anhydride was applied to temporal defects adjacent to periorbital areas. Skin defects were first subject to gentle dermabrasion followed by application of 0.1M disodium phosphate solution, pH 8.3 for 30 seconds using surgical gauze. Glutaric anhydride (50 mg/mL) was dissolved in ethanol or anhydrous alcohol and applied to the defects for 1 minute using surgical gauze. Treatment sites were then rinsed with 0.1M phosphate buffered saline, pH 7.2. Up to 5 treatments were made to specific skin sites.

Human Skin (Temple Area) = assay: Acetylation of human skin (temple area) following dermabrasion, in ethanol; format: in vivo; settings: 50 mg/mL in ethanol, approximately 0.25 mL aliquots, 1 minute, after dermabrasion, up to 5 treatments
Protocol: as §2, with “ethanol. Aliquots of approximately 0.25 mL were” for “ethanol or anhydrous alcohol and”, “sites” for “sites.”

Human Skin [8] = assay: Acetylation of human skin using alcohol penetration enhancer; format: in vivo; settings: 50 mg/mL in ethanol, 1 minute, no dermabrasion, up to 5 treatments
Protocol: as §2, with “pretreated” for “first subject to gentle dermabrasion followed”, “ethanol” for “ethanol or anhydrous alcohol”, “sites” for “sites.”

Human Skin [9] = assay: Acetylation of human skin using glutaric anhydride powder without dermabrasion; format: in vivo; settings: powder (10 mg/mL) applied to wet defects, 1 minute, no dermabrasion, up to 5 treatments
Protocol: In this example, glutaric anhydride was applied to temporal defects adjacent to periorbital areas. Skin defects were pretreated by application of 0.1M disodium phosphate solution, pH 8.3 for 30 seconds using surgical gauze. Glutaric anhydride powder (10 mg/mL) was gently applied to the wet defects for 1 minute, or until the powder dissolved, using surgical gauze. The powder Treatment sites were then rinsed with 0.1M phosphate buffered saline, pH 7.2. Up to 5 treatments were made to specific skin sites

Human Skin [10] = assay: Acetylation of human skin using glutaric anhydride in vegetable oil without dermabrasion; format: in vivo; settings: 30 mg/mL dispersed in vegetable oil, 1 minute, one treatment, no dermabrasion
Protocol: as §1, with “oil” for “oil adjusted to a pH of 9.0 using 10N NaOH”

[11] = after micro-needle roller, 1 minute

## O=C1CCCC(=O)O1 [glutaric anhydride]
Human Skin [1]
  Effect on skin thickness or appearance: No effect
Processed Human Dermis
  Durometer, Change (increase): 5.3% increase
  Low Chord Modulus, Change (decrease): 50.5% decrease
  Thickness, Change (increase): 18.3% increase
  Water Retention, Change (increase): 66.8% increase
Human Skin [2]
  Feel of application sites: thicker and softer
  Sensation at treated sites immediately after treatment and for sometime after: mild tingly feeling
  Skin smoothness (visual): visual improvement
  Skin thickness at the treatment sites (tactile): tactile increase
Human Skin [3]
  Sensation as the glutaric anhydride penetrated the skin: slight burning or tingly sensation
Human Skin [3]; after gauze removed and site flushed
  Redness at the treatment site: Some redness
Human Skin [3]; after the second application
  Persistence of skin thickening: more than 2 weeks
  Skin thickening at the treatment site: obvious minor skin thickening
Human Skin [4]
  Sensation at treated sites immediately after treatment and for sometime after: mild tingly feeling
Human Skin [4]; after micro-needle roller
  Color of treated sites: slightly red
  Feel of application site: felt thicker immediately after treatment and for several days later
  Skin thickness at the treatment sites (tactile): tactile increase
Human Skin [5]
  Appearance of skin defects: improvement
Human Skin [6]; 1 minute
  Sensation at treated sites immediately after treatment: mild tingly feeling
Human Skin [6]; [11]
  Color of treated sites: slightly red
  Feel of application site: felt slightly thicker immediately after treatment only
Human Skin [6]; after micro-needle roller, repeated treatments
  Effect of repeated treatments on skin appearance: appeared to enhance beneficial results
[7]
  Skin appearance (visual): visual improvement
  Skin thickness at the treatment sites (tactile): tactile increase
Human Skin (Temple Area)
  Skin smoothness (visual): visual improvement
  Skin thickness at the treatment sites (tactile): tactile increase
Human Skin [8]
  Skin smoothness (visual): minor visual improvement
  Skin thickness at the treatment sites (tactile): tactile increase
Human Skin [9]
  Skin smoothness (visual): No visual improvement
  Tactile increase in skin at the treatment sites: a tactile increase in skin as observed
Human Skin [10]
  Feel of application sites: thicker and softer
  Sensation at treated sites immediately after treatment and for sometime after: mild tingly feeling
  Skin smoothness (visual): minor visual improvement
  Skin thickness at the treatment sites (tactile): tactile increase
